Patent publication US8481597B2, “Use of (-) (3-trihalomethylphenoxy) (4-halophenyl) acetic acid derivatives for treatment of insulin resistance, type 2 diabetes, hyperlipidemia and hyperuricemia” (Metabolex, Inc., priority 1999, dated 2013)
Where two headings read alike, the source gives them in different places.

Columns and labels:
CYP2A6 [1] = molecular target: T1, CYP2A6 (Homo sapiens, UniProt P11509); assay: Cytochrome P450 isoform inhibition, coumarin, human hepatic microsomes (Example 18); details: TRAN 250 μM; 1 μM coumarin; VC 32.0 ± 1.4
T1 sequence (P11509 1-494): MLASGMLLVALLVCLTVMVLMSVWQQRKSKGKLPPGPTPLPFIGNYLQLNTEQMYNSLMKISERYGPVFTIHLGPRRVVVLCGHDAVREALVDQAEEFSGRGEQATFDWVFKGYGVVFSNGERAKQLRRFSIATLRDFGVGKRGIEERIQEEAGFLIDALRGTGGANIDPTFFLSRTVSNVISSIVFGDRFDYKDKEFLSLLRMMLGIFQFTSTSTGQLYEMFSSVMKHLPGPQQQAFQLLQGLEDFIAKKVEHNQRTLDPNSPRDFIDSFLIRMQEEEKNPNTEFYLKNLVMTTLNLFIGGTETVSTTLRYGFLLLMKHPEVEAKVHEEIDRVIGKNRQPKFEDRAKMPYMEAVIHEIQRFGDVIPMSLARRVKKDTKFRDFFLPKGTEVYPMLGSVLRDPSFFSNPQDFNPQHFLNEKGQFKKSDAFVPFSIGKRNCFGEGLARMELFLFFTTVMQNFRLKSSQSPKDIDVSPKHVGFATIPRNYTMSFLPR

CYP2A6 [2] = molecular target: T1, CYP2A6; details: for 7-HC Production: both, human, 20 min
CYP2D6 = CYP2D6 (Homo sapiens, UniProt P10635); details: both, 15 min
CYP1A2 = molecular target: T2, CYP1A2 (Homo sapiens, UniProt P05177); details: both, 30 min
T2 sequence (P05177 1-516): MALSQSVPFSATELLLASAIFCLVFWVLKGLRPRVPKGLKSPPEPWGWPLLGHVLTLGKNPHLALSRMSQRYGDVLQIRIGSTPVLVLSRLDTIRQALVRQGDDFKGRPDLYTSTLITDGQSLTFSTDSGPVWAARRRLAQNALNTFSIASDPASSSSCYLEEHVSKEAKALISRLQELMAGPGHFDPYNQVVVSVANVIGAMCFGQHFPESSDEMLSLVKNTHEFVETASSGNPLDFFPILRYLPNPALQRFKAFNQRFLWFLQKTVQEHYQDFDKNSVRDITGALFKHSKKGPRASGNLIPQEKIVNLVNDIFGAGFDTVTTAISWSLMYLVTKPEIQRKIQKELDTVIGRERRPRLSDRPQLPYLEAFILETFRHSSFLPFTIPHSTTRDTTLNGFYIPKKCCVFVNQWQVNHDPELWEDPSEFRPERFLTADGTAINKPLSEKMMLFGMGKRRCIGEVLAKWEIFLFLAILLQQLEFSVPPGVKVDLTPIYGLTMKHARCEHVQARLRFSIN

C57BL/6J ob/ob mice = assay: Glucose lowering of (±) and (−) halofenate analogs in ob/ob mice (Example 12); type: in vivo
[3] = molecular target: cytochrome P450 2C9 (CYP2C9) (Homo sapiens, UniProt P11712); assay: Inhibition of CYP2C9 tolbutamide hydroxylation in pooled human liver microsomes (Example 7); details: ratio of apparent IC50
Description: Tolbutamide hydroxylation activity (100 μM ^14C-tolbutamide; 1 mM NADPH) was assayed in pooled human liver microsomes (0.6 mg protein/ml)) for 60 minutes at 37° C. both with and without test compounds.

CYP3A4 = CYP3A4 (Homo sapiens, UniProt P08684); details: both, 10 min
CYP2C9 = CYP2C9 (Homo sapiens, UniProt P11712); details: both, human, 40 min
Sequence of CYP2C9 (P11712 whole entry): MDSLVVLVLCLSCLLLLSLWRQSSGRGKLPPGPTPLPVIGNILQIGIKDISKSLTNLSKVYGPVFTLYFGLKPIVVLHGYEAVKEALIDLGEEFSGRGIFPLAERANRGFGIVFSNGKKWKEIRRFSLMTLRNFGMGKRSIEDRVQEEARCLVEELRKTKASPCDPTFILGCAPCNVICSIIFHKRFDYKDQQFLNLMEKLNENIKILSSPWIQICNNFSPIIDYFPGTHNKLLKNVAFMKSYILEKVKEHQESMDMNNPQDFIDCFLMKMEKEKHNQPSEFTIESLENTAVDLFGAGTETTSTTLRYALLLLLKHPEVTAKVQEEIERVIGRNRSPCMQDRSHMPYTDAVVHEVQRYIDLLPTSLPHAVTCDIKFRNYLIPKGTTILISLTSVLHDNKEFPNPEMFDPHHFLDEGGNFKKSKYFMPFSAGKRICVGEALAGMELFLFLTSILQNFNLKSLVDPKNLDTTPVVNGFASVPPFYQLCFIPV

Sequence of CYP2D6 (P10635 whole entry): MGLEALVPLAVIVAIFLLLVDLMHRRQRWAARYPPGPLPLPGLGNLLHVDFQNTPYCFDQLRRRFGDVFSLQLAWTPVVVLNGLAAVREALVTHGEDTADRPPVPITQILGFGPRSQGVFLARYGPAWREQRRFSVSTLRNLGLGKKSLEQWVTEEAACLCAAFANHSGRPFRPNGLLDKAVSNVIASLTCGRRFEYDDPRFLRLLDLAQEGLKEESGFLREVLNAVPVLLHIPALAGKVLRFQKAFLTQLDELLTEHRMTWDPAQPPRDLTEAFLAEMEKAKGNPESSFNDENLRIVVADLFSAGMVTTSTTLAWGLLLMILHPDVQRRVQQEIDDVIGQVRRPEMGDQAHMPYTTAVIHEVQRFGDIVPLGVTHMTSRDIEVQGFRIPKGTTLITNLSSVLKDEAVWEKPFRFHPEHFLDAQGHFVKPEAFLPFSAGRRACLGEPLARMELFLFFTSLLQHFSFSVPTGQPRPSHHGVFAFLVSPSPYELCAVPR
Sequence of CYP3A4 (P08684 whole entry): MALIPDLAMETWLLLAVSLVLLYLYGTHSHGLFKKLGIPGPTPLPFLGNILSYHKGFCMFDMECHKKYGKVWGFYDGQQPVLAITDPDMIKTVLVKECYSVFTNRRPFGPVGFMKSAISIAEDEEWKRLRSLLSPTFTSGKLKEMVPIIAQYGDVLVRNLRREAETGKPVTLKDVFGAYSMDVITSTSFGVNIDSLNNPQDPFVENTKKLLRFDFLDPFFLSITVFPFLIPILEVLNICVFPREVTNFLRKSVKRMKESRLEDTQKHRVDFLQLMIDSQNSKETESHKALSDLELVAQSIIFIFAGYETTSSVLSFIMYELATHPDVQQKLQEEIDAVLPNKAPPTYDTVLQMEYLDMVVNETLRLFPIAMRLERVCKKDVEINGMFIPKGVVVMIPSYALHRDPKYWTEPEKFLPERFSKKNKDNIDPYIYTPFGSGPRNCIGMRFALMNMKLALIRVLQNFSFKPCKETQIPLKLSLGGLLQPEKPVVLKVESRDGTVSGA
Sequence of cytochrome P450 2C9 (CYP2C9) (P11712 whole entry): as the sequence (P11712 whole entry) above

Compound: N[C@@H]1C[C@H]1c1ccccc1 (racemic) [TRAN, tranylcypromine, reference compound]
- 7-HC Production (CYP2A6 [1]): 0.00 ± 0.00 pmol/mg protein/min
- % Inhibition (Coumarin, CYP2A6) (CYP2A6 [2]; microsomes): 100%

Compound: O=C(O)C(Oc1cccc(C(F)(F)F)c1)c1ccc(Cl)cc1 (single isomer, unassigned; (-)) [(−) halofenic acid, (−) 4-chlorophenyl-(3-trifluoromethylphenoxy)-acetic acid]
- DEX Production (CYP2D6; 0.33 μM): 107 ± 4 pmol/mg protein/min
- DEX Production (CYP2D6; 1 μM): 110 ± 2 pmol/mg protein/min
- DEX Production (CYP2D6; 3.3 μM): 104 ± 3 pmol/mg protein/min
- DEX Production (CYP2D6; 10 μM): 107 ± 1 pmol/mg protein/min
- DEX Production (CYP2D6; 33.3 μM): 106 ± 4 pmol/mg protein/min
- 7-HC Production (CYP2A6 [2]; 0.33 μM): 33.3 ± 0.7 pmol/mg protein/min
- 7-HC Production (CYP2A6 [2]; 1 μM): 32.6 ± 0.7 pmol/mg protein/min
- 7-HC Production (CYP2A6 [2]; 3.3 μM): 32.1 ± 0.7 pmol/mg protein/min
- 7-HC Production (CYP2A6 [2]; 10 μM): 33.1 ± 0.7 pmol/mg protein/min
- 7-HC Production (CYP2A6 [2]; 33.3 μM): 32.3 ± 0.7 pmol/mg protein/min
- AC Production (CYP1A2; 0.33 μM): 116 ± 2 pmol/mg protein/min
- AC Production (CYP1A2; 1 μM): 118 ± 2 pmol/mg protein/min
- AC Production (CYP1A2; 3.3 μM): 119 ± 2 pmol/mg protein/min
- AC Production (CYP1A2; 10 μM): 119 ± 2 pmol/mg protein/min
- AC Production (CYP1A2; 33.3 μM): 119 ± 2 pmol/mg protein/min
- time points with significantly lowered plasma glucose concentrations (C57BL/6J ob/ob mice; 125 mg/kg oral once a day): 6 h
- 6 hours Glucose (C57BL/6J ob/ob mice; 125 mg/kg oral once a day, 6 hours after first dose): 163.8 ± 11.8 mg/dL
- Predose Glucose (C57BL/6J ob/ob mice; baseline before dosing, group later given 125 mg/kg oral once a day): 312.9 ± 17.7 mg/dL
- fold less potent than (+) halofenic acid in inhibiting CYP2C9 [3]: ~20 fold
- 6β-OHT Production (CYP3A4; 0.33 μM): 1816 ± 12 pmol/mg protein/min
- 6β-OHT Production (CYP3A4; 1 μM): 1851 ± 14 pmol/mg protein/min
- 6β-OHT Production (CYP3A4; 3.3 μM): 1810 ± 3 pmol/mg protein/min
- 6β-OHT Production (CYP3A4; 10 μM): 1819 ± 4 pmol/mg protein/min
- 6β-OHT Production (CYP3A4; 33.3 μM): 1816 ± 6 pmol/mg protein/min
- 4-OH TB Production (CYP2C9; 0.33 μM): 41.0 ± 0.9 pmol/mg protein/min
- 4-OH TB Production (CYP2C9; 1 μM): 38.6 ± 0.5 pmol/mg protein/min
- 4-OH TB Production (CYP2C9; 3.3 μM): 34.2 ± 0.2 pmol/mg protein/min
- 4-OH TB Production (CYP2C9; 10 μM): 22.7 ± 0.6 pmol/mg protein/min
- 4-OH TB Production (CYP2C9; 33.3 μM): 12.7 ± 0.2 pmol/mg protein/min
- IC50 (CYP2C9; microsomes): ~11.3 µM
